In patent publication US5610143A, “Antibiotics GE 37468 A, B and C” (Gruppo Lepetit S.p.A., priority 1995, dated 1997) one finds M.I.C. data, which are given here for 2 molecules.

The subject of assay [1] is Staphylococcus aureus Smith. The assay can be described thus: MIC by broth microdilution. Conditions: Iso-Sensitest broth, inoculum 10^4 CFU/ml, 20-24 h, 37° C. Type of assay: cell-based. (In general: Broth dilution looks for growth in wells or tubes with falling amounts of substance.)
Assay [2] concerns Enterococcus faecalis ATCC 7080. The assay can be described thus: MIC by broth microdilution. Type of assay: cell-based. Particulars: Iso-Sensitest broth, inoculum 10^4 CFU/ml, 20-24 h, 37° C.
In assay [3] the test system is Propionibacterium acnes ATCC 6919. Briefly: MIC by broth microdilution. Type of assay: cell-based. Particulars: Wilkins-Chalgren broth, inoculum 10^5, 48 h, 37° C., N2:CO2:H2 (80:10:10).
The test system of assay [4] is Staphylococcus aureus L165. Particulars: Iso-Sensitest broth, inoculum 10^4 CFU/ml, 20-24 h, 37° C.
Assay [5] relates to Staphylococcus epidermidis ATCC 12228. Particulars: Iso-Sensitest broth, inoculum 10^4 CFU/ml, 20-24 h, 37° C.
Assay [6] relates to Staphylococcus haemolyticus L602. Conditions: Iso-Sensitest broth, inoculum 10^4 CFU/ml, 20-24 h, 37° C.
Assay [7] relates to Clostridium perfringens L290. Particulars: Wilkins-Chalgren broth, inoculum 10^5, 48 h, 37° C., N2:CO2:H2 (80:10:10).
Assay [8] relates to Bacteroides fragiles ATCC 25285. Particulars: Wilkins-Chalgren broth, inoculum 10^5, 48 h, 37° C., N2:CO2:H2 (80:10:10).
Assay [9] concerns Neisseria gonorrhoeae L997. Conditions: GC Base broth +1% IsoVitalex, inoculum 10^4 CFU/ml, 48 h, 37° C., 5% CO2 in air.
For assay [10], the system named is Haemophilus influenzae ATCC 19418. Particulars: Brain Heart Infusion broth +1% Supplement C, inoculum 10^4 CFU/ml, 48 h, 37° C., 5% CO2 in air.
Another assay has as its system Escherichia coli L47. Conditions: Iso-Sensitest broth, inoculum 10^4 CFU/ml, 20-24 h, 37° C.
Assay [11] relates to Pseudomonas aeruginosa ATCC 10145. Conditions: Iso-Sensitest broth, inoculum 10^4 CFU/ml, 20-24 h, 37° C.
Assay [12] concerns Proteus vulgaris ATCC 881. Particulars: Iso-Sensitest broth, inoculum 10^4 CFU/ml, 20-24 h, 37° C.
Another assay relates to Candida albicans L145. Particulars: phosphate buffered Yeast Nitrogen Base broth with glucose and L-asparagine, inoculum 10^4 CFU/ml, 20-24 h, 37° C.

Structures are written as SMILES.

Regarding `Cc1oc2nc1C(=O)NC(CC(N)=O)c1nc(cs1)C(=O)NC(Cc1ccccc1)C1=NC(CS1)C(=O)NC(Cc1ccc(O)cc1)C(=O)N1C(O)CC(C)C1c1nc(cs1)-c1nc(cs1)-c1nc(-c3nc(C(N)=O)cs3)ccc1-2` (stereo not shown) [GE37468B], the M.I.C. is given as 0.03 microgram/ml in assay [1]; 0.03 microgram/ml in [2]; 0.016 microgram/ml in [3]; 0.03 microgram/ml in assay [4]; 0.06 microgram/ml in assay [5]; 0.13 microgram/ml in assay [6]. Also, the M.I.C. in assay [7] is 0.016 microgram/ml; in assay [8], above 128 microgram/ml; in assay [9], above 128 microgram/ml; in assay [10], above 128 microgram/ml; with Escherichia coli L47 it was above 128 microgram/ml; in [11], above 128 microgram/ml. In addition, the M.I.C. (in [12]; in the assay with Candida albicans L145) was above 128 microgram/ml in each case.
As to `C=C(NC(=O)c1csc(-c2ccc3c(n2)-c2csc(n2)-c2csc(n2)C2C(C)CC(O)N2C(=O)C(Cc2ccc(O)cc2)NC(=O)C2CSC(=N2)C(Cc2ccccc2)NC(=O)c2csc(n2)C(CC(N)=O)NC(=O)c2nc-3oc2C)n1)C(N)=O` (stereo not shown) [GE37468C], the M.I.C. in assay [1] is 0.03 microgram/ml; in assay [2], 0.03 microgram/ml; in assay [3], 0.016 microgram/ml; in assay [4], 0.03 microgram/ml; in [5], 0.25 microgram/ml; in assay [6] it was 0.13 microgram/ml. The M.I.C. in assay [7] is on record as 0.016 microgram/ml; in assay [8], above 128 microgram/ml; in assay [9], above 128 microgram/ml; in [10] it was above 128 microgram/ml; in the assay on Escherichia coli L47, above 128 microgram/ml; in [11], above 128 microgram/ml. For the same molecule, the M.I.C. (in [12]; in the assay on Candida albicans L145) was above 128 microgram/ml each time.
